Test results taken from patent US20030199671A1, “Binding molecules for Fc-region polypeptides” (priority 2001, published 2003).
Like-named read-outs stand apart in the source and are kept apart here. Positions of bridges follow the written chain, without caps; N, C: chain ends. Residues, ends and D or L forms follow the SMILES beside them. code X = not defined here; Su = not defined here

How the values were obtained:
human plasma IgG3 = target: T1, human plasma IgG3 (Homo sapiens, UniProt P01860); assay: Fluorescence anisotropy binding, Oregon Green labeled peptide
T1 construct: the individual human plasma IgG isoforms: IgG1, IgG2, IgG3, or IgG4; purchased Calbiochem; host or cells: human plasma
Procedure: (§1) Peptides were synthesized by BACHEM and then Oregon Green labeled and HPLC purified. Binding studies were performed using human plasma IgG isoforms: IgG1, IgG2, IgG3, and IgG4, obtained from Calbiochem.
(§2) Binding studies were carried out at either pH 4.0, 7.5, or 9.5, with or without salt in the following buffers:
(§3) 2) 10 mM Sodium Citrate, 500 mM Sodium Chloride, 0.01% Tween 20, pH 4.0;
(§4) 4) […], 500 mM Sodium Chloride, 0.01% Tween 20, pH 7.5;
(§5) 5) 10 mM Sodium Bicarbonate, 0.01% Tween 20, pH 9.5;
(§6) 6) 10 mM Sodium Bicarbonate, 500 mM Sodium Chloride, 0.01% Tween 20, pH 9.5; or […]

human plasma IgG4 = target: T2, human plasma IgG4 (Homo sapiens, UniProt P01861); assay: as above
T2 construct: the individual human plasma IgG isoforms: IgG1, IgG2, IgG3, or IgG4; purchased Calbiochem; host or cells: human plasma
Procedure: as §1, §2, §3, §4, §5, §6

human plasma IgG2 = target: T3, human plasma IgG2 (Homo sapiens, UniProt P01859); assay: as above
T3 construct: the individual human plasma IgG isoforms: IgG1, IgG2, IgG3, or IgG4; purchased Calbiochem; host or cells: human plasma
Procedure: as §1, §2, §3, §4, §5, §6

human plasma IgG1 = target: T4, human plasma IgG1 (Homo sapiens, UniProt P01857); assay: as above
T4 construct: the individual human plasma IgG isoforms: IgG1, IgG2, IgG3, or IgG4; purchased Calbiochem; host or cells: human plasma
Procedure: as §1, §2, §3, §4, §5, §6

human IgG [1] = type: binding; conditions: Table 18; average ligand density 1.9 μmole/ml
Procedure: (§7) In addition, the following targets, all unfractionated IgGs, were also evaluated with selected immobilized peptides for species specificity characterization in a similar format: human IgG, goat IgG, bovine IgG, and mouse IgG (Sigma, product nos. I4506, I5256, I5506, and I15381, respectively). In addition, 10 μl aliquots of hydrolyzed NHS-activated Sepharose 4 Fast Flow (Amersham Pharmacia Biotech, product no. 17-0906-01) and immobilized recombinant Protein A (RepliGen Corp., product no. IPA-400) were also assayed as negative and positive controls. IgG targets were diluted into 10 mM phosphate buffer containing 150 mM NaCl and 0.01% Tween 20, pH 7.2 (PBST) or 50 mM Tris buffer containing, 150 mM NaCl and 0.01% Tween-20, pH 7.5 (TBST). Batch (static) binding and elution studies were conducted in a 96-well assay filterplate (Millipore MultiScreen-HV, with 0.45 μm Durapore membrane, product no. MAHVN4510). The target was allowed to incubate with the resin for 1-1.5 hours with shaking at room temperature. Unbound target was collected by centrifugation of samples from the assay plate directly into a low-UV absorbing 96-well collection plate (Costar, product no. 3635 or Greiner, product no. 655801). The unbound target was then quantitated by reading the absorbance at 280 nm (normalized to 1 cm pathlength, 1.4 mg/ml A280 extinction coefficient) of the collection plate on a microplate spectrophotometer (Molecular Devices Corp., SPECTRAmax PLUS) against a buffer blank.
(§8) The percentage bound target was determined by subtracting the mass determined as unbound from the corresponding condition's control values (control non-filtered added directly to the collection plate and/or the negative control). The assay plate was washed (3×) with 200 μl of binding buffer by vacuum filtration followed by addition of 100 μl of various elution conditions (e.g.: 0.1 M sodium bicarbonate buffer, pH 8.5 and/or 0.1 M sodium citrate buffer, pH 4.0). After a 30-60 minute incubation with shaking at room temperature, the eluted target was collected by centrifugation of the assay plate into another collection plate and quantitated in a similar manner. Percent elution of total load was then determined to characterize elution recovery efficiency under various conditions. The assay plate was then washed (3×) with 200 μl of binding buffer by vacuum filtration followed by addition of a resin cleaning condition (e.g., 0.1M CAPS buffer (3-[Cyclohexylamino]-1-propane-sulfonic acid), pH 11.5, to regenerate the resin for re-use. Percentage mass balance determination was calculated to be 90-100% on average.

human IgG2 = target: T5, human IgG2 (Homo sapiens, UniProt P01859); type: binding; conditions: Table 18; average ligand density 1.9 μmole/ml
T5 construct: all human subtypes derived from myeloma patients; purchased Calbiochem 400122; host or cells: myeloma patients
Procedure: as §7, §8

human IgG1 = target: T6, human IgG1 (Homo sapiens, UniProt P01857); type: binding; conditions: Table 18; average ligand density 1.9 μmole/ml
T6 construct: all human subtypes derived from myeloma patients; purchased Calbiochem 400120; host or cells: myeloma patients
Procedure: as §7, §8

IgG4 = IgG4 (Homo sapiens, UniProt P01861); type: binding; set-up: all human subtypes derived from myeloma patients; purchased Calbiochem 400126; host or cells: myeloma patients; conditions: Table 18; average ligand density 1.9 μmole/ml
Procedure: as §7, §8

human IgG [2] = assay: Static (filterplate) binding capacity; conditions: 25 mg human IgG applied per ml resin
Procedure: These media were used to determine the effect of ligand density on human IgG binding capacity in both static (filterplate) and dynamic (mini-column) modes with commercial immobilized recombinant Protein A (Repligen, IPA400) at a single density as control. Actual ligand densities obtained ranged from 0.17 to 3.2 μmole/ml media as confirmed by quantitative amino acid analysis.
After incubation of the samples, with shaking, at room temperature for one hour, the supernatant liquid from each well, containing unbound IgG, was collected by centrifugation into the cognate well of a collection plate. The assay plate was washed three times with PBST (200 μl/wash) and bound IgG was eluted from the media samples by incubation for 30-60 minutes at room temperature in 100 μl Elution Buffer (100 mM CAPS, pH 11.5). Eluates were collected by centrifugation for analysis. Protein concentrations were determined from A280 measurements and plotted as a function of mg human IgG bound per ml resin vs. mg human IgG applied per ml resin.
The amount of IgG captured (estimated from IgG recovered in the elution step) by the various media is dependent upon both the IgG concentration and the ligand density. […] Under these static conditions, where both ligand and target concentrations are close to KD values, equilibrium binding is established and total capacities cannot be accurately determined. However, over the IgG range of 0 to 25 mg IgG applied per ml resin (0 to 2.5 mg/ml target added to 10 μl of resin), capture of IgG is linear. Beyond this point, up to a level of 200 mg IgG applied per ml resin, saturation becomes more pronounced.

T4 sequence (P01857 1-330 isoform P01857-1): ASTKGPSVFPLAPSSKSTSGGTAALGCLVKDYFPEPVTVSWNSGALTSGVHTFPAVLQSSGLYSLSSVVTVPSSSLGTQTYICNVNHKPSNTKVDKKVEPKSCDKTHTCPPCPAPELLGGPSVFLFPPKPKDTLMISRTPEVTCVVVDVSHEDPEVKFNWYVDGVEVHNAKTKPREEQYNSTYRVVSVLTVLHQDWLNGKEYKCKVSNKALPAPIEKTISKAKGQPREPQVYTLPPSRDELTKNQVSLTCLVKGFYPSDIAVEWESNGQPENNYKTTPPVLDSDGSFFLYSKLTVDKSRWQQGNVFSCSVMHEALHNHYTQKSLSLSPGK
T2 sequence (P01861 1-327 isoform P01861-1): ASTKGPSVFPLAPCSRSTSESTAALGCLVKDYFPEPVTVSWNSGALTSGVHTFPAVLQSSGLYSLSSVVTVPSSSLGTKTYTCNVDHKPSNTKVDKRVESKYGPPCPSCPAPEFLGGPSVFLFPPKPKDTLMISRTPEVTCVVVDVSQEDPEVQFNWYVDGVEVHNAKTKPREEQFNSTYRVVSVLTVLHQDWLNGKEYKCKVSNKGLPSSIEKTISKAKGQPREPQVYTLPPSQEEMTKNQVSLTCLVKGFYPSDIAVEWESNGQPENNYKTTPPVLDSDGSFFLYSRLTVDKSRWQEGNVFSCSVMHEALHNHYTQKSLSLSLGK
T1 sequence (P01860 1-377 isoform P01860-1): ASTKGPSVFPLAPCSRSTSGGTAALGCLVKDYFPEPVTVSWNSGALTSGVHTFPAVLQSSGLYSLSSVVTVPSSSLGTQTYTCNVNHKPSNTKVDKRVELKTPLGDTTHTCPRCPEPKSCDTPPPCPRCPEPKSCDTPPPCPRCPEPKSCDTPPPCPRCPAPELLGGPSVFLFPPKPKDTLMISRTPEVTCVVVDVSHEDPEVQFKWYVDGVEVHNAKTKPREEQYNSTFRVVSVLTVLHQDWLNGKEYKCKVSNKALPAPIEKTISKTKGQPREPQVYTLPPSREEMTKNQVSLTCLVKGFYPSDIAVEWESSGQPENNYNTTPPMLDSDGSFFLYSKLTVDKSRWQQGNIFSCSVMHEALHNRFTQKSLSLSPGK
T3 sequence (P01859 1-326 isoform P01859-1): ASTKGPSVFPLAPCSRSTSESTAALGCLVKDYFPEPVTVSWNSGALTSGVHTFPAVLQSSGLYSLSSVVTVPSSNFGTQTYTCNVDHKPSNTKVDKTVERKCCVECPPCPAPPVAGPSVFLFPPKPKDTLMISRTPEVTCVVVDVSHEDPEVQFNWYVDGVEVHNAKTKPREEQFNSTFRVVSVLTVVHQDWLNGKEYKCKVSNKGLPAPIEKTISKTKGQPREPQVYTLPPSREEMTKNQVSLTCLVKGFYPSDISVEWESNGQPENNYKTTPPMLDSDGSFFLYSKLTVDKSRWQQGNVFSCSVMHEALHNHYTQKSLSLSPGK
T6 sequence (P01857 1-330 isoform P01857-1): as the sequence (P01857 1-330 isoform P01857-1) above
Sequence of IgG4 (P01861 1-327 isoform P01861-1): as the sequence (P01861 1-327 isoform P01861-1) above
T5 sequence (P01859 1-326 isoform P01859-1): as the sequence (P01859 1-326 isoform P01859-1) above

CC(=O)N[C@@H](C)C(=O)NCC(=O)N[C@@H](Cc1ccc(O)cc1)C(=O)N[C@@H](Cc1c[nH]c2ccccc12)C(=O)N[C@@H](Cc1ccc(O)cc1)C(=O)N[C@H]1CSSC[C@@H](C(=O)N2CCC[C@H]2C(=O)N[C@@H](CC(C)C)C(=O)N[C@@H](Cc2ccc(O)cc2)C(=O)N2CCC[C@H]2C(=O)NCC(=O)N2CCC[C@H]2C(=O)N[C@@H](CCC(=O)O)C(=O)NCC(=O)NCC(=O)NCC(=O)N[C@@H](CCCCN)C(N)=O)NC(=O)[C@H](CCC(=O)O)NC(=O)[C@@H]2CCCN2C(=O)[C@H](CCCNC(=N)N)NC(=O)[C@H](CC(=O)O)NC(=O)[C@@H]2CCCN2C(=O)[C@H](Cc2ccccc2)NC(=O)[C@H](Cc2c[nH]c3ccccc23)NC1=O [DX413] (Ac-AGYWYCWFPDRPECPLYPGPEGGGK-NH2; disulfide 6-14 (inferred))
Kd (human plasma IgG3; 10 nM Tris-HCl, 500 mM Sodium Chloride, pH 7.5, read-out: KD (μM) IgG3 pH 7.5 + salt): > 10 µM
Kd (human plasma IgG3; 10 mM Sodium Bicarbonate, 500 mM Sodium Chloride, pH 9.5, read-out: KD (μM) IgG3 pH 9.5 + salt): > 10 µM
Kd (human plasma IgG3; 10 mM Sodium Bicarbonate, pH 9.5, read-out: KD (μM) IgG3 pH 9.5 − salt): > 10 µM
Kd (human plasma IgG3; 10 mM Sodium Citrate, 500 mM Sodium Chloride, pH 4.0, read-out: KD (μM) IgG3 pH 4.0 + salt): ~1 µM
Kd (human plasma IgG3; 10 mM Sodium Citrate, pH 4.0, read-out: KD (μM) IgG3 pH 4.0 − salt): ~1 µM
Kd (human plasma IgG3; 10 mM Tris-HCl, pH 7.5, read-out: KD (μM) IgG3 pH 7.5 − salt): > 10 µM
Kd (human plasma IgG4; 10 nM Tris-HCl, 500 mM Sodium Chloride, pH 7.5, read-out: KD (μM) IgG4 pH 7.5 + salt): > 10 µM
Kd (human plasma IgG4; 10 mM Sodium Bicarbonate, 500 mM Sodium Chloride, pH 9.5, read-out: KD (μM) IgG4 pH 9.5 + salt): > 10 µM
Kd (human plasma IgG4; 10 mM Sodium Bicarbonate, pH 9.5, read-out: KD (μM) IgG4 pH 9.5 − salt): > 10 µM
Kd (human plasma IgG4; 10 mM Sodium Citrate, 500 mM Sodium Chloride, pH 4.0, read-out: KD (μM) IgG4 pH 4.0 + salt): > 10 µM
Kd (human plasma IgG4; 10 mM Sodium Citrate, pH 4.0, read-out: KD (μM) IgG4 pH 4.0 − salt): > 10 µM
Kd (human plasma IgG4; 10 mM Tris-HCl, pH 7.5, read-out: KD (μM) IgG4 pH 7.5 − salt): > 10 µM
Kd (human plasma IgG2; 10 nM Tris-HCl, 500 mM Sodium Chloride, pH 7.5, read-out: KD (μM) IgG2 pH 7.5 + salt): > 10 µM
Kd (human plasma IgG2; 10 mM Sodium Bicarbonate, 500 mM Sodium Chloride, pH 9.5, read-out: KD (μM) IgG2 pH 9.5 + salt): > 10 µM
Kd (human plasma IgG2; 10 mM Sodium Bicarbonate, pH 9.5, read-out: KD (μM) IgG2 pH 9.5 − salt): > 10 µM
Kd (human plasma IgG2; 10 mM Sodium Citrate, 500 mM Sodium Chloride, pH 4.0, read-out: KD (μM) IgG2 pH 4.0 + salt): > 10 µM
Kd (human plasma IgG2; 10 mM Sodium Citrate, pH 4.0, read-out: KD (μM) IgG2 pH 4.0 − salt): > 10 µM
Kd (human plasma IgG2; 10 mM Tris-HCl, pH 7.5, read-out: KD (μM) IgG2 pH 7.5 − salt): > 10 µM
Kd (human plasma IgG1; 10 nM Tris-HCl, 500 mM Sodium Chloride, pH 7.5, read-out: KD (μM) IgG1 pH 7.5 + salt): > 10 µM
Kd (human plasma IgG1; 10 mM Sodium Bicarbonate, 500 mM Sodium Chloride, pH 9.5, read-out: KD (μM) IgG1 pH 9.5 + salt): > 10 µM
Kd (human plasma IgG1; 10 mM Sodium Bicarbonate, pH 9.5, read-out: KD (μM) IgG1 pH 9.5 − salt): > 10 µM
Kd (human plasma IgG1; 10 mM Sodium Citrate, 500 mM Sodium Chloride, pH 4.0, read-out: KD (μM) IgG1 pH 4.0 + salt): > 10 µM
Kd (human plasma IgG1; 10 mM Sodium Citrate, pH 4.0, read-out: KD (μM) IgG1 pH 4.0 − salt): > 10 µM
Kd (human plasma IgG1; 10 mM Tris-HCl, pH 7.5, read-out: KD (μM) IgG1 pH 7.5 − salt): > 10 µM

Ac-GDDHMCVYTTWGELIWCDNH-X-Su-X-NH2 (Ac-GDDHMCVYTTWGELIWCDNH-{code X-Su-code X-NH2}; not fully specified (bridges); printed as Ac-GDDHMCVYTTWGELIWCDNH-X-Su-X-NH2; cysteine pairing not given here; reading uncertain) [DX909]
Batch Binding (% Capture of Total Load) hIgG (human IgG [1]): 49%
Batch Binding (% Capture of Total Load) hIgG2 (human IgG2): 54%
Batch Binding (% Capture of Total Load) hIgG1 (human IgG1): 66%
Batch Binding (% Capture of Total Load) hIgG4 (IgG4): 33%
Decrease in apparent relative static capacity compared to DX249, DX877 and DX878 (human IgG [2]): ~2 fold
